Experimental data taken from patent US12077503B2, “Substituted cyclic amides and their use as herbicides” (FMC CORPORATION, priority 2015, dated 2024).

Assays:
[1] = test system: johnsongrass (Sorghum halepense); experiment: Test C preemergence; assay type: in vivo; settings: for Plant response rating, Johnsongrass: scale 0 to 100, 0 no effect, 100 complete control
How it was run: (§1)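 Preemergence application to seeds in loam/sand soil, or foliar (postemergence) application to plants 2–18 cm tall in peat moss/vermiculite medium; surfactant-containing non-phytotoxic solvent vehicle; greenhouse. Visual injury vs controls at 13–15 d; 0 = no effect, 100 = complete control.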

[2] = test system: velvetleaf (Abutilon theophrasti); experiment: Test C preemergence; assay type: in vivo; settings: for Plant response rating, Velvetleaf: scale 0 to 100, 0 no effect, 100 complete control
How it was run: as §1

[3] = test system: lambsquarters (Chenopodium album); experiment: Test C preemergence; assay type: in vivo; settings: for Plant response rating, Lambsquarters: scale 0 to 100, 0 no effect, 100 complete control
How it was run: as §1

corn (Zea mays) = experiment: Test C preemergence; assay type: in vivo; settings: for Plant response rating, Corn: scale 0 to 100, 0 no effect, 100 complete control
How it was run: as §1

[4] = test system: blackgrass (Alopecurus myosuroides); experiment: Test C preemergence; assay type: in vivo; settings: for Plant response rating, Blackgrass: scale 0 to 100, 0 no effect, 100 complete control
How it was run: as §1

[5] = test system: Galium (catchweed bedstraw, Galium aparine); experiment: Test C preemergence; assay type: in vivo; settings: for Plant response rating, Galium: scale 0 to 100, 0 no effect, 100 complete control
How it was run: as §1

[6] = test system: ragweed (common ragweed, Ambrosia elatior); experiment: Test C preemergence; assay type: in vivo; settings: for Plant response rating, Ragweed: scale 0 to 100, 0 no effect, 100 complete control
How it was run: as §1

[7] = test system: ryegrass, Italian (Italian ryegrass, Lolium multiflorum); experiment: Test C preemergence; assay type: in vivo; settings: for Plant response rating, Ryegrass, Italian: scale 0 to 100, 0 no effect, 100 complete control
How it was run: as §1

[8] = test system: pigweed (Amaranthus retroflexus); experiment: Test C preemergence; assay type: in vivo; settings: for Plant response rating, Pigweed: scale 0 to 100, 0 no effect, 100 complete control
How it was run: as §1

soybean (Glycine max) = experiment: Test C preemergence; assay type: in vivo; settings: for Plant response rating, Soybean: scale 0 to 100, 0 no effect, 100 complete control
How it was run: as §1

[9] = test system: nutsedge, yellow (yellow nutsedge, Cyperus esculentus); experiment: Test C preemergence; assay type: in vivo; settings: for Plant response rating, Nutsedge, Yellow: scale 0 to 100, 0 no effect, 100 complete control
How it was run: as §1

[10] = test system: foxtail, giant (giant foxtail, Setaria faberii); experiment: Test C preemergence; assay type: in vivo; settings: for Plant response rating, Foxtail, Giant: scale 0 to 100, 0 no effect, 100 complete control
How it was run: as §1

[11] = test system: morningglory (Ipomoea coccinea); experiment: Test C preemergence; assay type: in vivo; settings: for Plant response rating, Morningglory: scale 0 to 100, 0 no effect, 100 complete control
How it was run: as §1

[12] = test system: oilseed rape (Brassica napus); experiment: Test C preemergence; assay type: in vivo; settings: for Plant response rating, Oilseed Rape: scale 0 to 100, 0 no effect, 100 complete control
How it was run: as §1

[13] = test system: wheat (winter wheat, Triticum aestivum); experiment: Test C preemergence; assay type: in vivo; settings: for Plant response rating, Wheat: scale 0 to 100, 0 no effect, 100 complete control
How it was run: as §1

[14] = test system: barnyardgrass (Echinochloa crus-galli); experiment: Test C preemergence; assay type: in vivo; settings: for Plant response rating, Barnyardgrass: scale 0 to 100, 0 no effect, 100 complete control
How it was run: as §1

[15] = test system: crabgrass, large (large crabgrass, Digitaria sanguinalis); experiment: Test C preemergence; assay type: in vivo; settings: for Plant response rating, Crabgrass, Large: scale 0 to 100, 0 no effect, 100 complete control
How it was run: as §1

[16] = 31 g ai/ha, 0 is no effect, 100 is complete control

In the case of `O=C1NCC(c2cc(F)cc(C(F)(F)F)c2)C1C(=O)Nc1cccc(F)c1F` (stereo not drawn) [Compound 488], the “Plant response rating (scale of 0 to 100), Johnsongrass” value [1, 16] is reported as 70, the “Plant response rating, Johnsongrass” value ([1]; 62 g ai/ha) is reported as 80 and the “Plant response rating, Johnsongrass” value ([1]; 125 g ai/ha) is reported as 85. For the same molecule, the “Plant response rating, Johnsongrass” value ([1]; 250 g ai/ha) was 90, the “Plant response rating (scale of 0 to 100), Velvetleaf” value [2, 16] was 0 and the “Plant response rating, Velvetleaf” value ([2]; 62 g ai/ha) was 0. For the same molecule, the “Plant response rating, Velvetleaf” value ([2]; 125 g ai/ha) was 10, the “Plant response rating, Velvetleaf” value ([2]; 250 g ai/ha) was 20 and the “Plant response rating (scale of 0 to 100), Lambsquarters” value [3, 16] was 20. For the same molecule, the “Plant response rating, Lambsquarters” value ([3]; 62 g ai/ha) was 50, the “Plant response rating, Lambsquarters” value ([3]; 125 g ai/ha) was 60 and the “Plant response rating, Lambsquarters” value ([3]; 250 g ai/ha) was 60. The “Plant response rating (scale of 0 to 100), Corn” value (corn (Zea mays); [16]) was 25, the “Plant response rating, Corn” value (corn (Zea mays); 62 g ai/ha) was 60 and the “Plant response rating, Corn” value (corn (Zea mays); 125 g ai/ha) was 70. The “Plant response rating, Corn” value (corn (Zea mays); 250 g ai/ha) was 85, the “Plant response rating (scale of 0 to 100), Blackgrass” value [4, 16] was 0 and the “Plant response rating, Blackgrass” value ([4]; 62 g ai/ha) was 50. For the same molecule, the “Plant response rating, Blackgrass” value ([4]; 125 g ai/ha) was 90, the “Plant response rating, Blackgrass” value ([4]; 250 g ai/ha) was 85 and the “Plant response rating (scale of 0 to 100), Galium” value [5, 16] was 80. The “Plant response rating, Galium” value ([5]; 62 g ai/ha) was 85, the “Plant response rating, Galium” value ([5]; 125 g ai/ha) was 85 and the “Plant response rating, Galium” value ([5]; 250 g ai/ha) was 85. For the same molecule, the “Plant response rating (scale of 0 to 100), Ragweed” value [6, 16] was 0, the “Plant response rating, Ragweed” value ([6]; 62 g ai/ha) was 25 and the “Plant response rating, Ragweed” value ([6]; 125 g ai/ha) was 40. For the same molecule, the “Plant response rating, Ragweed” value ([6]; 250 g ai/ha) was 70, the “Plant response rating (scale of 0 to 100), Ryegrass, Italian” value [7, 16] was 5 and the “Plant response rating, Ryegrass, Italian” value ([7]; 62 g ai/ha) was 35. The “Plant response rating, Ryegrass, Italian” value ([7]; 125 g ai/ha) was 70, the “Plant response rating, Ryegrass, Italian” value ([7]; 250 g ai/ha) was 65 and the “Plant response rating (scale of 0 to 100), Pigweed” value [8, 16] was 20. For the same molecule, the “Plant response rating, Pigweed” value ([8]; 62 g ai/ha) was 75, the “Plant response rating, Pigweed” value ([8]; 125 g ai/ha) was 70 and the “Plant response rating, Pigweed” value ([8]; 250 g ai/ha) was 85. The “Plant response rating (scale of 0 to 100), Soybean” value (soybean (Glycine max); [16]) was 0, the “Plant response rating, Soybean” value (soybean (Glycine max); 62 g ai/ha) was 0 and the “Plant response rating, Soybean” value (soybean (Glycine max); 125 g ai/ha) was 0. The “Plant response rating, Soybean” value (soybean (Glycine max); 250 g ai/ha) was 10, the “Plant response rating (scale of 0 to 100), Nutsedge, Yellow” value [9, 16] was 0 and the “Plant response rating, Nutsedge, Yellow” value ([9]; 62 g ai/ha) was 0. The “Plant response rating, Nutsedge, Yellow” value ([9]; 125 g ai/ha) was 0, the “Plant response rating, Nutsedge, Yellow” value ([9]; 250 g ai/ha) was 0 and the “Plant response rating (scale of 0 to 100), Foxtail, Giant” value [10, 16] was 85. For the same molecule, the “Plant response rating, Foxtail, Giant” value ([10]; 62 g ai/ha) was 90, the “Plant response rating, Foxtail, Giant” value ([10]; 125 g ai/ha) was 90 and the “Plant response rating, Foxtail, Giant” value ([10]; 250 g ai/ha) was 95. The “Plant response rating (scale of 0 to 100), Morningglory” value [11, 16] was 0, the “Plant response rating, Morningglory” value ([11]; 62 g ai/ha) was 25 and the “Plant response rating, Morningglory” value ([11]; 125 g ai/ha) was 55. The “Plant response rating, Morningglory” value ([11]; 250 g ai/ha) was 60, the “Plant response rating (scale of 0 to 100), Oilseed Rape” value [12, 16] was 40 and the “Plant response rating, Oilseed Rape” value ([12]; 62 g ai/ha) was 45. For the same molecule, the “Plant response rating, Oilseed Rape” value ([12]; 125 g ai/ha) was 85, the “Plant response rating, Oilseed Rape” value ([12]; 250 g ai/ha) was 90 and the “Plant response rating (scale of 0 to 100), Wheat” value [13, 16] was 35. The “Plant response rating, Wheat” value ([13]; 62 g ai/ha) was 35, the “Plant response rating, Wheat” value ([13]; 125 g ai/ha) was 85 and the “Plant response rating, Wheat” value ([13]; 250 g ai/ha) was 90. The “Plant response rating (scale of 0 to 100), Barnyardgrass” value [14, 16] was 95, the “Plant response rating, Barnyardgrass” value ([14]; 62 g ai/ha) was 90 and the “Plant response rating, Barnyardgrass” value ([14]; 125 g ai/ha) was 95. The “Plant response rating, Barnyardgrass” value ([14]; 250 g ai/ha) was 95, the “Plant response rating (scale of 0 to 100), Crabgrass, Large” value [15, 16] was 90 and the “Plant response rating, Crabgrass, Large” value ([15]; 62 g ai/ha) was 95. The “Plant response rating, Crabgrass, Large” value ([15]; 125 g ai/ha) was 95 and the “Plant response rating, Crabgrass, Large” value ([15]; 250 g ai/ha) was 100.
With `O=C1NC[C@H](c2ccc(C(F)(F)F)cn2)[C@H]1C(=O)Nc1cccc(F)c1F` [Compound 1104] the melting point was 192 to 196 °C.
